In the Kinase Knowledgebase extract (Sharma et al. 2016):

Key:
Experiment in all cases: Enzyme Assay
PIK3CB (Human) = PIK3CB (Human) (UniProt P42338)
PIK3CG (human) = PIK3CG (human) (UniProt P48736)
PIK3CA (human) = PIK3CA (human) (UniProt P42336)
PIK3CD (Human) = PIK3CD (Human) (UniProt O00329)
Sequence of PIK3CD (Human) (O00329 whole entry, looked up): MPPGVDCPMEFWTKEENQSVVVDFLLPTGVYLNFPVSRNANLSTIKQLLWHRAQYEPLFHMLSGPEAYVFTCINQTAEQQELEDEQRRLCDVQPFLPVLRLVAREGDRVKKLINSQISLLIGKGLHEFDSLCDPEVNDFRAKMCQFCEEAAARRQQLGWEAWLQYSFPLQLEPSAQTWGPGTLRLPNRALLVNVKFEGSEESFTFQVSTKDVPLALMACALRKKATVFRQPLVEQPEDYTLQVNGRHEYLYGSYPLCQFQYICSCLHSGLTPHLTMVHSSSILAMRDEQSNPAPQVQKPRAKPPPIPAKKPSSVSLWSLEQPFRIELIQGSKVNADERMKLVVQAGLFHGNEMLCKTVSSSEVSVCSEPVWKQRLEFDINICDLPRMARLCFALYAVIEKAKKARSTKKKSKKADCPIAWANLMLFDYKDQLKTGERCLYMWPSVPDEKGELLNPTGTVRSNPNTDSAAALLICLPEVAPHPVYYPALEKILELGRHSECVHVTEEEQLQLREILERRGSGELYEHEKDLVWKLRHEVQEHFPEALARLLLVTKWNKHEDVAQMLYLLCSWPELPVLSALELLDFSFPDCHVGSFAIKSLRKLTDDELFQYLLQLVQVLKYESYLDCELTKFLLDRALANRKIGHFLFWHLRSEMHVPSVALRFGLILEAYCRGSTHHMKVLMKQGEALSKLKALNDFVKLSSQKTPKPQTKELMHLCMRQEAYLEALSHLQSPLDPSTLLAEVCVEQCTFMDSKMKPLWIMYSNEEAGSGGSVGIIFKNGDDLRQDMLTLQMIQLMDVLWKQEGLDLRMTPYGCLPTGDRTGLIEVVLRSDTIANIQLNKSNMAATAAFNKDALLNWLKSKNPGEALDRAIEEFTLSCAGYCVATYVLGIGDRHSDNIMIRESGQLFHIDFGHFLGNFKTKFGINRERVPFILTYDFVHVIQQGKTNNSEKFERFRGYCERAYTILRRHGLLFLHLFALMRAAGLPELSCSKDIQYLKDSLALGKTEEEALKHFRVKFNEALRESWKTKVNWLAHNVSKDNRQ

Sequence of PIK3CG (human) (P48736 whole entry, looked up): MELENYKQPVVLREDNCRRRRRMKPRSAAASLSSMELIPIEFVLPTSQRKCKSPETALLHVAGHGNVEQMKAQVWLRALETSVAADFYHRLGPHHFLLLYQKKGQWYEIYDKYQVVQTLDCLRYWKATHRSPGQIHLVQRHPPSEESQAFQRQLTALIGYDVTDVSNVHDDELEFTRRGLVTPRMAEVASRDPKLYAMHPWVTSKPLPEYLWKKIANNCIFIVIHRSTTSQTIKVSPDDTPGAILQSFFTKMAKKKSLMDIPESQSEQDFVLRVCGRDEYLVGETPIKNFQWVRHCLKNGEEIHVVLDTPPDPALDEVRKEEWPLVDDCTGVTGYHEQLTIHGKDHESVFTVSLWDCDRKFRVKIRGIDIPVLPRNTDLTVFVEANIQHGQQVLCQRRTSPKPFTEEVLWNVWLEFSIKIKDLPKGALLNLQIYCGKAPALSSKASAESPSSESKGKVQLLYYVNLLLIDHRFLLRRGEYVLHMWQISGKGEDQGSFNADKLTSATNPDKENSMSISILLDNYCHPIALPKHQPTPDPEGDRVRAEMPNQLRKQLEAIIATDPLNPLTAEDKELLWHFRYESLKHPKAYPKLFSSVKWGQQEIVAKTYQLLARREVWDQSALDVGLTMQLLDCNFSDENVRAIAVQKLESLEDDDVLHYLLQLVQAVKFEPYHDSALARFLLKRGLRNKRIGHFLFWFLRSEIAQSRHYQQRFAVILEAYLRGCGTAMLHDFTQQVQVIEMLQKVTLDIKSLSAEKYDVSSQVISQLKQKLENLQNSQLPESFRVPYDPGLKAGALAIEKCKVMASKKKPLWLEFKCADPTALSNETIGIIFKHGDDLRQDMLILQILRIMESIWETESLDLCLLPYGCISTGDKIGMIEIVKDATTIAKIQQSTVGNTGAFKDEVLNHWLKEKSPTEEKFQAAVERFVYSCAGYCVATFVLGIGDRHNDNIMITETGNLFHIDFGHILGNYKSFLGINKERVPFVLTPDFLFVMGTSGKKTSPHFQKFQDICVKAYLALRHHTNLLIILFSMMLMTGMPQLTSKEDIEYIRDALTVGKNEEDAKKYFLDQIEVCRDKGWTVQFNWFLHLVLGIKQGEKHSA
Sequence of PIK3CA (human) (P42336 whole entry, looked up): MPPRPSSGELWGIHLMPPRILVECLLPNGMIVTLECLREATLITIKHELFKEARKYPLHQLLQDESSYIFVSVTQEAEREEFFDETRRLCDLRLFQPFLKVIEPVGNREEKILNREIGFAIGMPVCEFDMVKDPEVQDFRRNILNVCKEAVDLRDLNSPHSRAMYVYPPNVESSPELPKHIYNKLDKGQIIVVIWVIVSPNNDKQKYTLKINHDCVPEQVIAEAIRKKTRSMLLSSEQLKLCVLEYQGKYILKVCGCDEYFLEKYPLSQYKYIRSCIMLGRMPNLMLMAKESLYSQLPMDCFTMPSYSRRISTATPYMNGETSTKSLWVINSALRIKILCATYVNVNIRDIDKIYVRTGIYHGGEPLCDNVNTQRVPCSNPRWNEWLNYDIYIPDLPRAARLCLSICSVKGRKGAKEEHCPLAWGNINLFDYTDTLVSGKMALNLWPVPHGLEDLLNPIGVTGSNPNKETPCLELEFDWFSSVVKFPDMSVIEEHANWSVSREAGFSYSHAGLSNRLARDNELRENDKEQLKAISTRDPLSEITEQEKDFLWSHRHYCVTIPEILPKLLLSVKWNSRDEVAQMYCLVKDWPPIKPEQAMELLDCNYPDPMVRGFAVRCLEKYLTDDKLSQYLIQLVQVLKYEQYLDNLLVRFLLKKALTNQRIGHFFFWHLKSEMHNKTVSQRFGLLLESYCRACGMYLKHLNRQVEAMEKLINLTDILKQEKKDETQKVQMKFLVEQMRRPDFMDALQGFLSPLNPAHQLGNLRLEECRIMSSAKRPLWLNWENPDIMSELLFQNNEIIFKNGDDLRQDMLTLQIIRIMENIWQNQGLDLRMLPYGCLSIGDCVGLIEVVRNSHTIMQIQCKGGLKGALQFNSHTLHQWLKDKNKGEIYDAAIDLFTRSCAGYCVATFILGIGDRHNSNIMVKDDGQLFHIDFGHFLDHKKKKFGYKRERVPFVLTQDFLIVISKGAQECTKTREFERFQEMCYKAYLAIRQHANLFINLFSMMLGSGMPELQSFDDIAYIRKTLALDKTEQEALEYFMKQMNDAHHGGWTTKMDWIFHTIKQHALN
Sequence of PIK3CB (Human) (P42338 whole entry, looked up): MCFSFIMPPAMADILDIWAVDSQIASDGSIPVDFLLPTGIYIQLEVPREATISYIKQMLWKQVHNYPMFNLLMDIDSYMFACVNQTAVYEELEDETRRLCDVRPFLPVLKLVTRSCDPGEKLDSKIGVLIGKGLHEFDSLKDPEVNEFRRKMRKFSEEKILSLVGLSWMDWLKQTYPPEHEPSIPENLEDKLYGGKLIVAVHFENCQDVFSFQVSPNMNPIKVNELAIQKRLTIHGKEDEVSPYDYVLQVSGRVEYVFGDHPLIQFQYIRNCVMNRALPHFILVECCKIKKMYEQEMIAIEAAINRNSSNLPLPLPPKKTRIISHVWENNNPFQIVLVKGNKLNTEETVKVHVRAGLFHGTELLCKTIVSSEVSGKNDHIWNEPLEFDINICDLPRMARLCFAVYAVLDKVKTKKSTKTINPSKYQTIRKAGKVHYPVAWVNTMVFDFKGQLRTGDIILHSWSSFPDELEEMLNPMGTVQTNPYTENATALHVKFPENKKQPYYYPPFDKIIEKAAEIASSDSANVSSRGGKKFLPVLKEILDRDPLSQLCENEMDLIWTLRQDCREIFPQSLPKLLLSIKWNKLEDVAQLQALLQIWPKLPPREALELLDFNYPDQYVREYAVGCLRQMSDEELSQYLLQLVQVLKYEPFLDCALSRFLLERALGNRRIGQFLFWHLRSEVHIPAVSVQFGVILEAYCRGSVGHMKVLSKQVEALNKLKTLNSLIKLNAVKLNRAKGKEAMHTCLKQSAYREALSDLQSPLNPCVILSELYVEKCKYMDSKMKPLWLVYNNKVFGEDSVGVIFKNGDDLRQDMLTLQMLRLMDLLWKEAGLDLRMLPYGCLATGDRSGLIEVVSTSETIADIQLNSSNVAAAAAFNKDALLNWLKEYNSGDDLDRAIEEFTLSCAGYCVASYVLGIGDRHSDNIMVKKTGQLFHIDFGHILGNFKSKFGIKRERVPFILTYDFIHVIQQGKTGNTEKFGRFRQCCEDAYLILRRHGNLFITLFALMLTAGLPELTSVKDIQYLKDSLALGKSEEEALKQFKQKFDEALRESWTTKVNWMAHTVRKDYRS

| SMILES | IC50 (PIK3CB (Human)) [nM] | IC50 (PIK3CG (human)) [nM] | IC50 (PIK3CA (human)) [nM] | IC50 (PIK3CD (Human)) [nM] |
| --- | --- | --- | --- | --- |
| CC(C)OCCN1c2nc(N3CCOCC3)cc(=O)n2CCC1(C)C | > 10000 | > 10000 | 7430 | 4130 |
| O=c1cc(N2CCOCC2)nc2n1CC[C@@H](C(F)(F)F)N2CCc1ccccc1 | 36 | 107 | 17 | 14 |
| C[C@H]1COCCN1c1cc(=O)n2c(n1)N(Cc1ccc(Cl)s1)[C@H](C(F)(F)F)CC2 | 643 | 1820 | 1010 | 364 |
| O=c1cc(N2CC3CCC(C2)O3)nc2n1CC[C@@H](C(F)(F)F)N2Cc1ccc(Cl)s1 |  |  | 3690 | 3790 |
| CC(C)OCCN1c2nc(N3CCOCC3)cc(=O)n2CC[C@@]1(C)C(F)(F)F | 34 | 628 | 88 | 27 |
| O=c1cc(N2CCOCC2)nc2n1CC[C@@H](C(F)(F)F)N2Cc1ccc(Cl)s1 | 218 | 7170 | 502 | 169 |
| O=c1cc(N2CCOCC2)nc2n1CC[C@@H](C(F)(F)F)N2Cc1ccccc1 | 99 | 1600 | 50 | 53 |
| O=c1cc(N2CCOCC2)nc2n1CC[C@@H](C(F)(F)F)N2c1ccccc1 | 93 | 1880 |  | 61 |
| C[C@@H]1COCCN1c1cc(=O)n2c(n1)N(Cc1ccc(Cl)s1)[C@H](C(F)(F)F)CC2 |  |  | 2900 | 1300 |
| O=c1cc(N2CCOCC2)nc2n1CC[C@@H](C(F)(F)F)N2c1cc(F)cc(F)c1 | 340 | 3510 |  | 270 |
| CC1(C)CCn2c(nc(N3CCOCC3)cc2=O)N1C[C@@H](O)c1ccccc1 | 4590 | 7350 | 1920 | 1170 |
| CC(C)OCCN1c2nc(N3CCOCC3)cc(=O)n2CC[C@H]1C(F)(F)F | 233 | 1750 |  | 211 |
| O=c1cc(N2CCOCC2)nc2n1CC[C@@H](C(F)(F)F)N2C[C@H](O)c1ccccc1 | 998 | > 10000 |  |  |
| O=c1cc(N2CCOCC2)nc2n1CCC1(CC1)N2C[C@@H](O)c1ccccc1 | 3500 | 2930 | 931 | 606 |
| O=c1cc(N2CCOCC2)nc2n1CC[C@@H](C(F)(F)F)N2C[C@@H](O)c1ccccc1 | 16 | 15 |  |  |
